From ChEMBL document CHEMBL2406902, “Potent and Orally Bioavailable GPR142 Agonists as Novel Insulin Secretagogues for the Treatment of Type 2 Diabetes” (ACS Med Chem Lett, 2013)
Values belong to the compound of their own block, whether it stands above or below them. Activity calls are given as the source filed them. The calls are words filed in the database; no cut-off is given here.

Columns and labels:
[1] = Metabolic stability in mouse liver microsomes assessed as compound remaining at 1 uM after 15 mins by LC/MS analysis; format: ADME, Microsome; conditions: read-out: Stability
[2] = target: T1, Probable G-protein coupled receptor 142 (Homo sapiens, UniProt Q7Z601); experiment: Agonist activity at human GPR142 transfected in HEK293 cells after 1 hr by inositol phosphate accumulation assay; format: functional, cell-based
T1 sequence (Q7Z601 whole entry): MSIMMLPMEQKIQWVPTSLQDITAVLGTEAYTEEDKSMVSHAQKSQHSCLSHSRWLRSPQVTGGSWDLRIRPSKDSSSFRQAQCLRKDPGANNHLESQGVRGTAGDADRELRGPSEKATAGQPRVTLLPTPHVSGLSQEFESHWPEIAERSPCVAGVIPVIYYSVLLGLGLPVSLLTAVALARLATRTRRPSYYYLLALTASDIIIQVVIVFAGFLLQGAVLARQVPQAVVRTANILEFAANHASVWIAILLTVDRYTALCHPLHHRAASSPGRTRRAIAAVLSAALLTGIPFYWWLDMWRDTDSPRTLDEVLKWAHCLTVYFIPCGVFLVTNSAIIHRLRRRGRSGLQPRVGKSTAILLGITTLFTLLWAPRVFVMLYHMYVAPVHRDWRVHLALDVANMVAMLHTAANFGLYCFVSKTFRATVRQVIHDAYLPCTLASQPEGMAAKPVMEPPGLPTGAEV

[3] = Metabolic stability in human liver microsomes assessed as compound remaining at 1 uM after 15 mins by LC/MS analysis; format: ADME, Microsome; conditions: read-out: Stability
[4] = Lipophilicity, log D of the compound at pH 7.4; format: physicochemical; conditions: buffer
[5] = Permeability of the compound at pH 5 by PAMPA; format: ADME; conditions: read-out: permeability
[6] = Permeability of the compound at pH 7.4 by PAMPA; format: ADME; conditions: read-out: permeability
[7] = Metabolic stability in human liver microsomes assessed as compound remaining at 1 uM after 30 mins by LC/MS analysis; format: ADME, Microsome; conditions: read-out: Stability
[8] = Metabolic stability in monkey liver microsomes assessed as compound remaining at 1 uM after 30 mins by LC/MS analysis; format: ADME, Macaca mulatta, Microsome; conditions: rhesus monkey, read-out: Stability
[9] = tested on: Mus musculus; experiment: Antidiabetic activity in sc dosed mouse assessed as improvement of glucose tolerance; format: functional, organism-based
[10] = tested on: Pancreatic islet; experiment: Antidiabetic activity in rat primary pancreatic islets assessed as potentiation of insulin secretion under low glucose condition at 1 to 100 uM after 60 mins; format: functional
[11] = Oral bioavailability in monkey at 1 mg/kg; format: ADME, organism-based, Macaca mulatta; conditions: rhesus monkey, in vivo
[12] = Volume of distribution at steady state in monkey at 0.5 mg/kg, iv; format: ADME, organism-based, Macaca mulatta; parameters: dose 0.5 mg/kg, route intravenous; conditions: rhesus monkey, in vivo, read-out: Vdss
[13] = Clearance in monkey at 0.5 mg/kg, iv; format: ADME, organism-based, Macaca mulatta; parameters: dose 0.5 mg/kg, route intravenous; conditions: rhesus monkey, in vivo
[14] = tested on: Pancreatic islet; experiment: Antidiabetic activity in rat primary pancreatic islets assessed as potentiation of insulin secretion under high glucose condition at 1 to 100 uM after 60 mins; format: functional
[15] = Metabolic stability in rat liver microsomes assessed as compound remaining at 1 uM after 30 mins by LC/MS analysis; format: ADME, Microsome; conditions: read-out: Stability
[16] = tested on: Cynomolgus monkey; experiment: Antidiabetic activity in cynomolgus monkey having impaired glucose tolerance assessed as decrease in blood glucose level at 10 mg/kg, po administered 60 mins for once a week followed by glucose challenge by OGTT; format: functional, organism-based; parameters: dose 10 mg/kg; conditions: Macaca fascicularis
[17] = tested on: Cynomolgus monkey; experiment: Antidiabetic activity in po dosed cynomolgus monkey having impaired glucose tolerance assessed as decrease in blood glucose level administered 60 mins for once a week followed by glucose challenge by OGTT; format: functional, organism-based; conditions: Macaca fascicularis
[18] = tested on: Mus musculus; experiment: Antidiabetic activity in po bolus dosed ob/ob mouse assessed as increase in plasma insulin level after 15 to 20 mins; format: functional, organism-based
[19] = tested on: Mus musculus; experiment: Antidiabetic activity in po dosed C57BL/6J mouse assessed as decrease in blood glucose level administered 30 mins followed by glucose challenge by OGTT; format: functional
[20] = Half life in monkey at 1 mg/kg, po; format: ADME, organism-based, Macaca mulatta; parameters: dose 1 mg/kg, route oral; conditions: rhesus monkey, in vivo
[21] = target: Cytochrome P450 3A4 (Homo sapiens, UniProt P08684); experiment: Inhibition of CYP3A4 (unknown origin); format: ADME
[22] = tested on: Cynomolgus monkey; experiment: Antidiabetic activity in cynomolgus monkey having impaired glucose tolerance assessed as decrease in blood glucose level at 10 mg/kg administered 60 mins for once a week followed by glucose challenge by OGTT; format: functional, organism-based; parameters: dose 10 mg/kg; conditions: Macaca fascicularis
[23] = tested on: Mus musculus; experiment: Antidiabetic activity in C57BL/6J mouse assessed as decrease in blood glucose level at 10 mg/kg administered 30 mins followed by glucose challenge by OGTT; format: functional, organism-based; parameters: dose 10 mg/kg

Cytochrome P450 3A4, sequence (P08684 whole entry): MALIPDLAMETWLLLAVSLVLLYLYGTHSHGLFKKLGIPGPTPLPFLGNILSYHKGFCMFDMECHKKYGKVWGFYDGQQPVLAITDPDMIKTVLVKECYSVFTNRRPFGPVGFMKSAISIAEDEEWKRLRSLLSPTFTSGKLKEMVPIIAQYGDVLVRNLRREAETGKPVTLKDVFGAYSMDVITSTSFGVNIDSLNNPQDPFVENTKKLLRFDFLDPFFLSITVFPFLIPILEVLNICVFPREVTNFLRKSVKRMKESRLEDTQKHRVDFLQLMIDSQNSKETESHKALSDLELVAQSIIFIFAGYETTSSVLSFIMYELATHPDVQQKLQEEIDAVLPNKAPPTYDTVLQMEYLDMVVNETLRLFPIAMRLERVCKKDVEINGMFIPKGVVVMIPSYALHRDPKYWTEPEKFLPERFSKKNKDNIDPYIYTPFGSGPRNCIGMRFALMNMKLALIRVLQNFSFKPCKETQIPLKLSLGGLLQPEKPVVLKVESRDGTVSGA

SMILES: CCCCc1c(C(=O)NCc2cncn2CC(=O)O)cnn1-c1ncc(C)c(-c2cccs2)n1
remaining at 0.25 h, 1 µM [1]: 93%
EC50 ([2]; read-out: EC50): 0.2 nM

SMILES: CCCCc1c(C(=O)NCc2sc(C)nc2C)cnn1-c1ncc(C)c(-c2cccs2)n1
remaining at 0.25 h, 1 µM [1]: 10%
EC50 ([2]; read-out: EC50): 200 nM

SMILES: CCCCc1c(C(=O)NCc2c(C)ncn2C)cnn1-c1ncc(C)c(-c2cccs2)n1
remaining at 0.25 h, 1 µM [3]: 19%
EC50 ([2]; read-out: EC50): 1 nM

SMILES: CCCc1c(C(=O)NCc2ccncc2)cnn1-c1ncc(C)c(-c2cccs2)n1
remaining at 0.25 h, 1 µM [1]: 1%
EC50 ([2]; read-out: EC50): 250 nM

SMILES: CCOCc1c(C(=O)NCc2cncn2C)cnn1-c1ncc(C)c(-c2cccs2)n1
logD [4]: 2.2
Papp [5]: 2 ×10⁻⁶ cm/s
Papp [6]: 4 ×10⁻⁶ cm/s
remaining at 0.5 h, 1 µM [7]: 71%
remaining at 0.5 h, 1 µM [8]: 34%
EC50 ([2]; read-out: EC50): 1.3 nM

SMILES: COCc1c(C(=O)NCc2ccncc2)cnn1-c1ncc(C)c(-c2cccs2)n1
Activity [9]: Active
Activity [10]: inactive
bioavailability [11]: 3.9%
Vd [12]: 1 L/kg
clearance [13]: 21.7 mL/min/kg
remaining at 0.25 h, 1 µM [1]: 3%
EC50 ([2]; read-out: EC50): 1500 nM
Activity [14]: Active

SMILES: CCCCc1c(C(=O)NCc2c[nH]c3ccccc23)cnn1-c1ncc(C)c(-c2cccs2)n1
EC50 ([2]; read-out: EC50): > 20000 nM

SMILES: CCOCc1c(C(=O)NCc2cncn2C)cnn1-c1ncc(C)c(OCC)n1
Papp [5]: 1.2 ×10⁻⁶ cm/s
Papp [6]: 2.9 ×10⁻⁶ cm/s
remaining at 0.5 h, 1 µM [7]: 77%
remaining at 0.5 h, 1 µM [15]: 77%
remaining at 0.5 h, 1 µM [8]: 66%
EC50 ([2]; read-out: EC50): 96 nM

SMILES: CCCCc1c(C(=O)NCc2cnc(C)n2C)cnn1-c1ncc(C)c(-c2cccs2)n1
remaining at 0.25 h, 1 µM [3]: 20%
remaining at 0.25 h, 1 µM [1]: 6%
EC50 ([2]; read-out: EC50): 30 nM

SMILES: CCCCc1c(C(=O)NCc2ccncc2)cnn1-c1ncc(C)c(-c2cccs2)n1
EC50 ([2]; read-out: EC50): 7 nM

SMILES: CCCc1c(C(=O)NC(C)(C)c2ccncc2)cnn1-c1ncc(C)c(-c2cccs2)n1
remaining at 0.25 h, 1 µM [1]: 2%
EC50 ([2]; read-out: EC50): 5 nM

SMILES: CCC(C)c1c(C(=O)NCc2ccncc2)cnn1-c1ncc(C)c(-c2cccs2)n1 (stereo not given)
EC50 ([2]; read-out: EC50): 1200 nM

SMILES: CCc1c(C(=O)NCc2ccncc2)cnn1-c1ncc(C)c(-c2cccs2)n1
EC50 ([2]; read-out: EC50): 1000 nM

SMILES: N[C@@H](CC(=O)N1CCn2c(nnc2C(F)(F)F)C1)Cc1cc(F)c(F)cc1F
Activity [22]: Active
Activity [23]: Active

SMILES: CCCCc1c(C(=O)NCc2ccnn2C)cnn1-c1ncc(C)c(-c2cccs2)n1
remaining at 0.25 h, 1 µM [1]: 13%
EC50 ([2]; read-out: EC50): 90 nM

Second part, led by results:

remaining at 0.25 h, 1 µM [1]: 11%
EC50 ([2]; read-out: EC50): > 20000 nM
SMILES: CCCc1c(C(=O)NCc2cc(C)no2)cnn1-c1ncc(C)c(-c2cccs2)n1

EC50 ([2]; read-out: EC50): 30 nM
SMILES: CCOCc1c(C(=O)NCc2ccncc2)cnn1-c1ncc(C)c(-c2cccs2)n1

remaining at 0.25 h, 1 µM [1]: 0%
EC50 ([2]; read-out: EC50): 3000 nM
SMILES: CCCc1c(C(=O)N(CC)Cc2ccncc2)cnn1-c1ncc(C)c(-c2cccs2)n1

remaining at 0.25 h, 1 µM [3]: 22%
remaining at 0.25 h, 1 µM [1]: 5%
EC50 ([2]; read-out: EC50): 100 nM
SMILES: CCCCc1c(C(=O)NC2CCCc3ncn(C)c32)cnn1-c1ncc(C)c(-c2cccs2)n1 (stereo not given)

logD [4]: 2
Papp [5]: 0.8 ×10⁻⁶ cm/s
Papp [6]: 3.1 ×10⁻⁶ cm/s
remaining at 0.5 h, 1 µM [7]: 69%
remaining at 0.5 h, 1 µM [15]: 66%
remaining at 0.5 h, 1 µM [8]: 46%
EC50 ([2]; read-out: EC50): 14 nM
SMILES: CCOCc1c(C(=O)NCc2cncn2C)cnn1-c1ncc(C)c(N2CCCC2)n1

Papp [5]: 0.2 ×10⁻⁶ cm/s
Papp [6]: 1.6 ×10⁻⁶ cm/s
remaining at 0.5 h, 1 µM [7]: 76%
remaining at 0.5 h, 1 µM [8]: 78%
EC50 ([2]; read-out: EC50): 28 nM
SMILES: CCOCc1c(C(=O)NCc2cncn2C)cnn1-c1ncc(C)c(N2CCC2)n1

Papp [5]: 1.5 ×10⁻⁶ cm/s
Papp [6]: 3.5 ×10⁻⁶ cm/s
bioavailability [11]: 26%
half-life [20]: 72 min
Vd [12]: 0.77 L/kg
clearance [13]: 16.7 mL/min/kg
IC50 [21]: 1000 nM
remaining at 0.5 h, 1 µM [7]: 88%
remaining at 0.5 h, 1 µM [15]: 53%
remaining at 0.5 h, 1 µM [8]: 61%
EC50 ([2]; read-out: EC50): 22 nM
SMILES: CCOCc1c(C(=O)NCc2cncn2C)cnn1-c1ncc(C)c(N2CCCCC2)n1
Activity [16]: Active
Activity [17]: Dose-dependent effect
Activity [18]: Dose-dependent effect
Activity [19]: Dose-dependent effect
ED50 ([19]; 0.5 h): 3.3 mg/kg

Papp [5]: 0.2 ×10⁻⁶ cm/s
Papp [6]: 1.6 ×10⁻⁶ cm/s
remaining at 0.5 h, 1 µM [7]: 87%
remaining at 0.5 h, 1 µM [8]: 68%
EC50 ([2]; read-out: EC50): 25 nM
SMILES: CCOCc1c(C(=O)NCc2cncn2C)cnn1-c1ncc(C)c(NC2CCC2)n1

Papp [5]: 3.6 ×10⁻⁶ cm/s
Papp [6]: 8 ×10⁻⁶ cm/s
remaining at 0.5 h, 1 µM [7]: 74%
remaining at 0.5 h, 1 µM [15]: 54%
remaining at 0.5 h, 1 µM [8]: 40%
remaining at 0.25 h, 1 µM [3]: 70%
remaining at 0.25 h, 1 µM [1]: 56%
EC50 ([2]; read-out: EC50): 1 nM
SMILES: CCCCc1c(C(=O)NCc2cncn2C)cnn1-c1ncc(C)c(-c2cccs2)n1

remaining at 0.25 h, 1 µM [1]: 2%
EC50 ([2]; hek293): Not Active
SMILES: CCCCc1c(C(=O)NCc2ccc(F)cc2)cnn1-c1ncc(C)c(-c2cccs2)n1

EC50 ([2]; read-out: EC50): 1000 nM
SMILES: CCCCCc1c(C(=O)NCc2ccncc2)cnn1-c1ncc(C)c(-c2cccs2)n1

remaining at 0.25 h, 1 µM [1]: 4.7%
EC50 ([2]; read-out: EC50): 15000 nM
SMILES: CCCc1c(C(=O)NCc2cn(C)cn2)cnn1-c1ncc(C)c(-c2cccs2)n1
